# Experimental data: patent publication US12466800B2, “N-((1,2,3,5,6,7-hexahydro-S-indacen-4-yl)carbamoyl)-4, 5, 6, 7-tetrahydrobenzofuran-2-sulfonamide derivatives and related compounds as NLPR3 modulators for the treatment of multiple sclerosis (MS)” (Zomagen Biosciences Ltd, priority 2019, dated 2025)
# Test system: IL-1b
# Assay: Mouse BMDM IL-1b Assay
# Assay type: cell-based
# Settings: Macrophage; mouse bone marrow derived macrophages (C57BL6); 200 ng/mL LPS 3 h, compound 30 min, 5 mM ATP 45 min; IL-1b ELISA of supernatant
# Protocol: Example 20: Mouse BMDM IL-1b Assay
# Mouse bone marrow cells from C57BL6 tibia and femur were culture in complete Isocov's Media supplemented with 20 ng/mL MCSF (BMDM media) at a density of 50 million cells/15 cm Petri dish. Fresh media was changed every 3 days, and bone marrow derived macrophages were collected, washed, and counted on day 7. Cells were seeded into 96 well plates at a density of 5×10^4 cells per well in 100 uL of BMDM media and cultured overnight. The cells were stimulated at 37° C. with 200 ng/mL Ultrapure LPS-B5 for 3 hours before pre-diluted compounds were added. 30 minutes after compound addition, 5 mM ATP was added for the secondary stimulation for 45 minutes. After stimulation, the plates were briefly spun down, and 50 uL of supernatant was harvested from each well. ELISA for mouse IL-1b was performed with 1:10 and 1:100 diluted supernatant using pre-coated kits. IL-1b concentrations were calculated based on pre-titrated standards, and compound inhibition IC50 is generated using the Levenberg Marquardt damped lease-square method.
row,IC50 [nM],Structure (SMILES)
1,100 to 1000,"CC(C)c1ccc(Cl)c(C(C)C)c1NC(=O)NS(=O)(=O)c1cc2c(o1)CCCC2(C)O (stereo not drawn) [Compound 66, N-((3-chloro-2,6-diisopropylphenyl)carbamoyl)-4-hydroxy-4-methyl-4,5,6,7-tetrahydrobenzofuran-2-sulfonamide]"
2,1000 to 10000,"CC(C)c1c(F)c(Cl)c(F)c(C(C)C)c1NC(=O)NS(=O)(=O)c1cc2c(o1)CCC/C2=N/O [Compound 100, (Z)-N-((4-chloro-3,5-difluoro-2,6-diisopropylphenyl)carbamoyl)-4-(hydroxyimino)-4,5,6,7-tetrahydrobenzofuran-2-sulfonamide]"
3,100 to 1000,"CC(C)c1ccc(F)c(C(C)C)c1NC(=O)NS(=O)(=O)c1cc2c(o1)CCC/C2=N\O [Compound 98, (E)-N-((3-fluoro-2,6-diisopropylphenyl)carbamoyl)-4-(hydroxyimino)-4,5,6,7-tetrahydrobenzofuran-2-sulfonamide]"
4,100 to 1000,"CC(C)c1ccc(F)c(C(C)C)c1NC(=O)NS(=O)(=O)c1cc2c(o1)CCCC2O (stereo not drawn) [Compound 67, N-((3-fluoro-2,6-diisopropylphenyl)carbamoyl)-4-hydroxy-4,5,6,7-tetrahydrobenzofuran-2-sulfonamide]"
5,100 to 1000,"CC(C)c1c(F)c(Cl)c(F)c(C(C)C)c1NC(=O)NS(=O)(=O)c1cc2c(o1)CCCC2O (stereo not drawn) [Compound 102, N-((4-chloro-3,5-difluoro-2,6-diisopropylphenyl)carbamoyl)-4-hydroxy-4,5,6,7-tetrahydrobenzofuran-2-sulfonamide]"
6,100 to 1000,"CC(C)c1cc(F)cc(C(C)C)c1NC(=O)NS(=O)(=O)c1cc2c(o1)CCC/C2=N\O [Compound 86, (E)-N-((4-fluoro-2,6-diisopropylphenyl)carbamoyl)-4-(hydroxyimino)-4,5,6,7-tetrahydrobenzofuran-2-sulfonamide]"
7,1000 to 10000,"CC(C)c1cc(F)cc(C(C)C)c1NC(=O)NS(=O)(=O)c1cc2c(o1)CCC/C2=N/O [Compound 85, (Z)-N-((4-fluoro-2,6-diisopropylphenyl)carbamoyl)-4-(hydroxyimino)-4,5,6,7-tetrahydrobenzofuran-2-sulfonamide]"
8,100 to 1000,"CC(C)c1cc(Br)cc(C(C)C)c1NC(=O)NS(=O)(=O)c1cc2c(o1)CCCC2O (stereo not drawn) [Compound 69, N-((4-bromo-2,6-diisopropylphenyl)carbamoyl)-4-hydroxy-4,5,6,7-tetrahydrobenzofuran-2-sulfonamide]"
9,100 to 1000,"CC(C)c1cccc(C(C)C)c1NC(=O)NS(=O)(=O)c1cc2c(o1)CCCC2(C)O (stereo not drawn) [Compound 60, N-((2,6-diisopropylphenyl)carbamoyl)-4-hydroxy-4-methyl-4,5,6,7-tetrahydrobenzofuran-2-sulfonamide]"
10,100 to 1000,"CC(C)c1cc(Br)cc(C(C)C)c1NC(=O)NS(=O)(=O)c1cc2c(o1)CCCC2(C)O (stereo not drawn) [Compound 70, N-((4-bromo-2,6-diisopropylphenyl)carbamoyl)-4-hydroxy-4-methyl-4,5,6,7-tetrahydrobenzofuran-2-sulfonamide]"
11,100 to 1000,"CC(C)c1cccc(C(C)C)c1NC(=O)NS(=O)(=O)c1cc2c(o1)CCCCC2(C)O (stereo not drawn) [Compound 109, N-((2,6-diisopropylphenyl)carbamoyl)-4-hydroxy-4-methyl-5,6,7,8-tetrahydro-4H-cyclohepta[b]furan-2-sulfonamide]"

# Continued, compound first:
row,Structure (SMILES),IC50 [nM]
1,"O=C(Nc1c2c(cc3c1CCC3)CCC2)NS(=O)(=O)c1cc2c(o1)CCCC2O (stereo not drawn) [Compound 8, N-((1,2,3,5,6,7-hexahydro-s-indacen-4-yl)carbamoyl)-4-hydroxy-4,5,6,7-tetrahydrobenzofuran-2-sulfonamide]",< 100
2,"CC(C)c1cccc(C(C)C)c1CC(=O)NS(=O)(=O)c1cc2c(o1)CCC(C)(C)C2(C)O (stereo not drawn) [Compound 75, 2-(2,6-diisopropylphenyl)-N-((4-hydroxy-4,5,5-trimethyl-4,5,6,7-tetrahydrobenzofuran-2-yl)sulfonyl)acetamide]",1000 to 10000
3,"O=C(Nc1c2c(cc3c1CCC3)CCC2)NS(=O)(=O)c1cc2c(o1)CCCNC2=O [Compound 38, N-((1,2,3,5,6,7-hexahydro-s-indacen-4-yl)carbamoyl)-4-oxo-5,6,7,8-tetrahydro-4H-furo[3,2-c]azepine-2-sulfonamide]",100 to 1000
4,"CN1CCc2oc(S(=O)(=O)NC(=O)Nc3c4c(cc5c3CCC5)CCC4)cc2C1=O [Compound 112, N-((1,2,3,5,6,7-hexahydro-s-indacen-4-yl)carbamoyl)-5-methyl-4-oxo-4,5,6,7-tetrahydrofuro[3,2-c]pyridine-2-sulfonamide]",100 to 1000
5,"O=C(Nc1c2c(cc3c1CCC3)CCC2)NS(=O)(=O)c1cc2c(s1)CCCC2O (stereo not drawn) [Compound 124, N-((1,2,3,5,6,7-hexahydro-s-indacen-4-yl)carbamoyl)-4-hydroxy-4,5,6,7-tetrahydrobenzo[b]thiophene-2-sulfonamide]",< 100
6,"CC1(C)CCc2oc(S(=O)(=O)NC(=O)Nc3c4c(cc5c3CCC5)CCC4)cc2C1O (stereo not drawn) [Compound 14, N-((1,2,3,5,6,7-hexahydro-s-indacen-4-yl)carbamoyl)-4-hydroxy-5,5-dimethyl-4,5,6,7-tetrahydrobenzofuran-2-sulfonamide]",< 100
7,"O=C(O)CC1(O)CCCc2oc(S(=O)(=O)NC(=O)Nc3c4c(cc5c3CCC5)CCC4)cc21 (stereo not drawn) [Compound 104, 2-(2-(N-((1,2,3,5,6,7-hexahydro-s-indacen-4-yl)carbamoyl)sulfamoyl)-4-hydroxy-4,5,6,7-tetrahydrobenzofuran-4-yl)acetic acid]",1000 to 10000
8,"O=C(Nc1c2c(c(F)c3c1CCC3)CCC2)NS(=O)(=O)c1cc2c(o1)CCC/C2=N/O [Compound 89, (Z)-N-((8-fluoro-1,2,3,5,6,7-hexahydro-s-indacen-4-yl)carbamoyl)-4-(hydroxyimino)-4,5,6,7-tetrahydrobenzofuran-2-sulfonamide]",< 100
9,"O=C(Nc1c2c(cc3c1CCC3)CCC2)NS(=O)(=O)c1cc2c(o1)CCCc1c[nH]nc1-2 [Compound 33, N-((1,2,3,5,6,7-hexahydro-s-indacen-4-yl)carbamoyl)-2,4,5,6-tetrahydrofuro[2′,3′:6,7]cyclohepta[1,2-c]pyrazole-8-sulfonamide]",100 to 1000
10,"CC1(O)CCCCc2oc(S(=O)(=O)NC(=O)Nc3c4c(c(Cl)c5c3CCC5)CCC4)cc21 (stereo not drawn) [Compound 107, N-((8-chloro-1,2,3,5,6,7-hexahydro-s-indacen-4-yl)carbamoyl)-4-hydroxy-4-methyl-5,6,7,8-tetrahydro-4H-cyclohepta[b]furan-2-sulfonamide]",< 100
11,"O=C(Nc1c2c(c(F)c3c1CCC3)CCC2)NS(=O)(=O)c1cc2c(o1)CCCCC2O (stereo not drawn) [Compound 116, N-((8-fluoro-1,2,3,5,6,7-hexahydro-s-indacen-4-yl)carbamoyl)-4-hydroxy-5,6,7,8-tetrahydro-4H-cyclohepta[b]furan-2-sulfonamide]",< 100
12,"CC1(O)CCCc2sc(S(=O)(=O)NC(=O)Nc3c4c(cc5c3CCC5)CCC4)cc21 (stereo not drawn) [Compound 123, N-((1,2,3,5,6,7-hexahydro-s-indacen-4-yl)carbamoyl)-4-hydroxy-4-methyl-4,5,6,7-tetrahydrobenzo[b]thiophene-2-sulfonamide]",< 100
13,"O=C(Nc1c2c(c(C(F)(F)F)c3c1CCC3)CCC2)NS(=O)(=O)c1cc2c(o1)CCCC2O (stereo not drawn) [Compound 55, 4-hydroxy-N-((8-(trifluoromethyl)-1,2,3,5,6,7-hexahydro-s-indacen-4-yl)carbamoyl)-4,5,6,7-tetrahydrobenzofuran-2-sulfonamide]",< 100
